The source of these data is patent US20250011368A1, “DLL3 TARGETING PEPTIDES AND CONSTRUCTS THEREOF” (MARIANA ONCOLOGY INC., priority 2023, published 2025).

Numbered stars: 1 amine (or outer) side, 2 acyl side, 3 side chain; on linkers, the order of the positions; unused ones are H or OH. Bridge positions count the residues as written; N and C are the ends. Square brackets hold non-standard residues; d marks the D form. Side chains are listed from the residue outwards. Peptide text beside a SMILES is read from it. * marks the point of attachment. ξ: configuration not given here. TtdsdLys(DOTA)NH2 = NC(=O)[C@@H](CCCCNC(=O)CN1CCN(CC(=O)O)CCN(CC(=O)O)CCN(CC(=O)O)CC1)NC(=O)CCC(=O)NCCCOCCOCCOCCCN*; X2 = O=C(O)CN1CCN(CC(=O)O)CCN(CC(=O)NCCOCCOCCOCCOCCOCCOCCOCCOCC(=O)*)CCN(CC(=O)O)CC1; DOTA = O=C(O)CN1CCN(CC(=O)O)CCN(CC(=O)*)CCN(CC(=O)O)CC1; Phe(4-CF3) = N[C@@H](Cc1ccc(C(F)(F)F)cc1)C(=O)O; Trp(5-F) = N[C@@H](Cc1c[nH]c2ccc(F)cc12)C(=O)O; Trp(7-aza) = N[C@@H](Cc1c[nH]c2ncccc12)C(=O)O; Pro(trans-4-F) = O=C(O)[C@@H]1C[C@@H](F)CN1; γGlu = O=C(O)[C@H](CCC(=O)[*:2])N[*:1]; 1Nal = N[C@@H](Cc1cccc2ccccc12)C(=O)O; 2Nal = N[C@@H](Cc1ccc2ccccc2c1)C(=O)O; Nva(3-Et) = CCC(CC)[C@H](N)C(=O)O; ξW = NC(Cc1c[nH]c2ccccc12)C(=O)O; Cha = N[C@@H](CC1CCCCC1)C(=O)O; Thr(3ξ) = CC(O)[C@H](N)C(=O)O; Cba = N[C@@H](CC1CCC1)C(=O)O; Chg = N[C@H](C(=O)O)C1CCCCC1; PEG4 = NCCOCCOCCOCCOCCC(=O)O; Nle = CCCC[C@H](N)C(=O)O; Aze = O=C(O)[C@@H]1CCN1; ξC = NC(CS)C(=O)O

In this assay the target is T1, human DLL3 (Homo sapiens, UniProt Q9NYJ7).
T1 sequence (Q9NYJ7 27-618): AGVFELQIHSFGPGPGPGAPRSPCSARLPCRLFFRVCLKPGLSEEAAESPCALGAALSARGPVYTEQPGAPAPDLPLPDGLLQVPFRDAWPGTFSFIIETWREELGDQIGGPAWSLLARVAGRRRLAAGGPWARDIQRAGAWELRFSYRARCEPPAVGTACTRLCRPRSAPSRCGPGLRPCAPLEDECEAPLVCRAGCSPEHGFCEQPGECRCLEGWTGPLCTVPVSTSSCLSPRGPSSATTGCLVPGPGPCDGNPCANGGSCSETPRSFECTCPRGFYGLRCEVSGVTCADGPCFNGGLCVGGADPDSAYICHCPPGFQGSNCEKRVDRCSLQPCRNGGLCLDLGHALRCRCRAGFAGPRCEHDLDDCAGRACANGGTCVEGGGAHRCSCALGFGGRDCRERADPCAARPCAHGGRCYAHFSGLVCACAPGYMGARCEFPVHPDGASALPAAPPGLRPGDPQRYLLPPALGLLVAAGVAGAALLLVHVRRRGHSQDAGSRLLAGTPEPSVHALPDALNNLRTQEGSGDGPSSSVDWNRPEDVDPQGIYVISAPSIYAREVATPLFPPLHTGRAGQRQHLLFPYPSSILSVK
The assay is described as follows: Affinity determination by Surface Plasmon Resonance (SPR). Conditions: 25° C., biotinylated human DLL3 immobilized on streptavidin sensor chip, 1:1 binding model; read-out: SPR KD. The assay is classed as binding. In outline:
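Biotinylated human DLL3 was captured on a streptavidin chip with a reference surface. Compounds at several concentrations were injected at 100 μL/minute in phosphate buffer (137 mM NaCl, 2.7 mM KCl, 0.05% P20, 2% DMSO). Affinity and kinetics came from 1:1 model fits of the sensorgrams.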
For orientation: Kd means the equilibrium constant for the complex coming apart. Consider `CC(=O)N[C@@H](Cc1c[nH]c2ccccc12)C(=O)N[C@H](C(=O)N[C@@H](CC1CCCCC1)C(=O)N[C@H]1CSSC[C@@H](C(=O)N[C@@H](Cc2c[nH]c3ncccc23)C(=O)N2CCC[C@H]2C(=O)N[C@H](CCCCNC(=O)CN2CCN(CC(=O)O)CCN(CC(=O)O)CCN(CC(=O)O)CC2)C(N)=O)NC(=O)[C@H](CC(=O)O)NC(=O)[C@H](Cc2cnc[nH]2)NC(=O)[C@H](Cc2ccc3ccccc3c2)NC(=O)[C@H](C)NC(=O)[C@H](CC(N)=O)NC1=O)[C@@H](C)O` [compound 198, Ac-W-T-(CHA)-C(3)-N-A-(2Nal)-H-D-C(3)-(7-Aza-W)-P-[D-Lys(DOTA)]-NH2] (Ac-WT[Cha]CNA[2Nal]HDC[Trp(7-aza)]P[dK](DOTA)-NH2; disulfide 4-10), for which the Kd is under 1 nM.

As to `CC[C@H](C)[C@H](NC(=O)[C@@H](NC(=O)[C@H](Cc1c[nH]c2ccccc12)NC(C)=O)[C@@H](C)O)C(=O)N[C@H]1CSSC[C@@H](C(=O)NC(Cc2c[nH]c3ccccc23)C(=O)N2CCC[C@H]2C(=O)N[C@H](CCCCNC(=O)COCCOCCOCCOCCOCCOCCOCCOCCNC(=O)CN2CCN(CC(=O)O)CCN(CC(=O)O)CCN(CC(=O)O)CC2)C(N)=O)NC(=O)[C@H](CC(=O)O)NC(=O)[C@H](Cc2cnc[nH]2)NC(=O)[C@H](Cc2c[nH]c3ccccc23)NC(=O)[C@H](CC(N)=O)NC(=O)[C@H](CC(N)=O)NC1=O` (stereo partly drawn) [compound 89, Ac-W-T-I-C(3)-N-N-W-H-D-C(3)-W-P-(D-Lys)-PEG8-DOTA-NH2] (Ac-WTICNNWHDC[ξW]P[dK](X2)-NH2; disulfide 4-10), the Kd lay in the range of 1 to 10 nM.

`CCCC[C@H](NC(=O)[C@@H](NC(=O)[C@H](Cc1c[nH]c2ccc(F)cc12)NC(C)=O)[C@@H](C)O)C(=O)N[C@H]1CSSC[C@@H](C(=O)N[C@@H](Cc2c[nH]c3ncccc23)C(=O)N2C[C@H](F)C[C@H]2C(=O)N[C@H](CCCCNC(=O)CN2CCN(CC(=O)O)CCN(CC(=O)O)CCN(CC(=O)O)CC2)C(N)=O)NC(=O)[C@H](CC(=O)O)NC(=O)[C@H](Cc2c[nH]cn2)NC(=O)[C@H](Cc2ccc(C(F)(F)F)cc2)NC(=O)[C@H](CC(N)=O)NC(=O)[C@H](CC(N)=O)NC1=O` [compound 148, Ac-(5Fluoro-W)-T-(Nle)-C(3)-N-N-(4CF3-F)-H-D-C(3)-(7Aza-W)-(trans4Fluoro-P)-[D-Lys(DOTA)]-NH2] (Ac-[Trp(5-F)]T[Nle]CNN[Phe(4-CF3)]HDC[Trp(7-aza)][Pro(trans-4-F)][dK](DOTA)-NH2; disulfide 4-10): the Kd is 1 to 10 nM.

As for `CCC(CC)[C@H](NC(=O)[C@@H](NC(=O)[C@H](Cc1c[nH]c2ccccc12)NC(C)=O)[C@@H](C)O)C(=O)N[C@H]1CSSC[C@@H](C(=O)N[C@@H](Cc2c[nH]c3ncccc23)C(=O)N2CCC[C@H]2C(=O)N[C@H](CCCCNC(=O)CN2CCN(CC(=O)O)CCN(CC(=O)O)CCN(CC(=O)O)CC2)C(N)=O)NC(=O)[C@H](CC(=O)O)NC(=O)[C@H](Cc2c[nH]cn2)NC(=O)[C@H](Cc2ccc3ccccc3c2)NC(=O)[C@H](C)NC(=O)[C@H](CC(N)=O)NC1=O` [compound 199, Ac-W-T-(Env)-C(3)-N-A-(2Nal)-H-D-C(3)-(7-Aza-W)-P-[D-Lys(DOTA)]-NH2] (Ac-WT[Nva(3-Et)]CNA[2Nal]HDC[Trp(7-aza)]P[dK](DOTA)-NH2; disulfide 4-10), the Kd is under 1 nM.

Turning to `CC[C@H](C)[C@H](NC(=O)[C@@H](NC(=O)[C@H](Cc1c[nH]c2ccccc12)NC(C)=O)[C@@H](C)O)C(=O)N[C@H]1CSSCC(C(=O)N[C@@H](Cc2c[nH]c3ccccc23)C(=O)N2CCC[C@H]2C(=O)N[C@H](CCCCNC(=O)CN2CCN(CC(=O)O)CCN(CC(=O)O)CCN(CC(=O)O)CC2)C(N)=O)NC(=O)[C@H](CC(=O)O)NC(=O)[C@H](Cc2cnc[nH]2)NC(=O)[C@H](Cc2c[nH]c3ncccc23)NC(=O)[C@H](CC(N)=O)NC(=O)[C@H](CC(N)=O)NC1=O` (stereo partly drawn) [compound 85, Ac-W-T-I-C(3)-N-N-(7Aza-W)-H-D-C(3)-W-P-[D-Lys(DOTA)]-NH2] (Ac-WTICNN[Trp(7-aza)]HD[ξC]WP[dK](DOTA)-NH2; disulfide 4-10), the Kd was 1 to 10 nM.

As to `CC(=O)N[C@@H](Cc1c[nH]c2ccc(F)cc12)C(=O)N[C@H](C(=O)N[C@H](C(=O)N[C@H]1CSSC[C@@H](C(=O)N[C@@H](Cc2c[nH]c3ncccc23)C(=O)N2CC[C@H]2C(=O)N[C@H](CCCCNC(=O)CN2CCN(CC(=O)O)CCN(CC(=O)O)CCN(CC(=O)O)CC2)C(N)=O)NC(=O)[C@H](CC(=O)O)NC(=O)[C@H](Cc2cnc[nH]2)NC(=O)[C@H](Cc2ccc(C(F)(F)F)cc2)NC(=O)[C@H](CC(N)=O)NC(=O)[C@H](CC(N)=O)NC1=O)C1CCCCC1)[C@@H](C)O` [compound 143, Ac-(5Fluoro-W)-T-(Chg)-C(3)-N-N-(4CF3-F)-H-D-C(3)-(7Aza-W)-(Aze)-[D-Lys(DOTA)]-NH2] (Ac-[Trp(5-F)]T[Chg]CNN[Phe(4-CF3)]HDC[Trp(7-aza)][Aze][dK](DOTA)-NH2; disulfide 4-10), the dissociation constant Kd lay in the range of 1 to 10 nM.

Take `CC[C@H](C)[C@H](NC(=O)[C@@H](NC(=O)[C@H](Cc1c[nH]c2ccccc12)NC(C)=O)[C@@H](C)O)C(=O)N[C@H]1CSSC[C@@H](C(=O)N[C@@H](Cc2cccc3ccccc23)C(=O)N2CCC[C@H]2C(=O)N[C@H](CCCCNC(=O)CN2CCN(CC(=O)O)CCN(CC(=O)O)CCN(CC(=O)O)CC2)C(N)=O)NC(=O)[C@H](CC(=O)O)NC(=O)[C@H](Cc2cnc[nH]2)NC(=O)[C@H](Cc2c[nH]c3ccccc23)NC(=O)[C@H](CC(N)=O)NC(=O)[C@H](CC(N)=O)NC1=O` [compound 76, Ac-W-T-I-C(3)-N-N-W-H-D-C(3)-(1Nal)-P-[D-Lys(DOTA)]-NH2] (Ac-WTICNNWHDC[1Nal]P[dK](DOTA)-NH2; disulfide 4-10): the Kd was in the range of 1 to 10 nM.

As to `CC[C@H](C)[C@H](NC(=O)[C@@H](NC(=O)C(Cc1c[nH]c2ccccc12)NC(C)=O)C(C)O)C(=O)N[C@H]1CSSC[C@@H](C(=O)N[C@@H](Cc2c[nH]c3ccccc23)C(=O)N2CCC[C@H]2C(=O)NCCOCCOCCOCCOCCC(=O)N[C@H](CCCCNC(=O)CN2CCN(CC(=O)O)CCN(CC(=O)O)CCN(CC(=O)O)CC2)C(N)=O)NC(=O)[C@H](CC(=O)O)NC(=O)[C@H](Cc2cnc[nH]2)NC(=O)[C@H](Cc2ccc3ccccc3c2)NC(=O)[C@H](CC(N)=O)NC(=O)[C@H](CC(N)=O)NC1=O` (stereo partly drawn) [compound 270, Ac-W-T-I-C(3)-N-N-(2Nal)-H-D-C(3)-W-P-PEG4-[D-Lys(DOTA)]-NH2] (Ac-[ξW][Thr(3ξ)]ICNN[2Nal]HDCWP[PEG4][dK](DOTA)-NH2; disulfide 4-10), the Kd is under 1 nM.

With `CC[C@H](C)[C@H](NC(=O)[C@@H](NC(=O)[C@H](Cc1c[nH]c2ccccc12)NC(C)=O)[C@@H](C)O)C(=O)N[C@H]1CSSC[C@@H](C(=O)N[C@@H](Cc2c[nH]c3ccccc23)C(=O)N2CCC[C@H]2C(=O)NCC(=O)NCC(=O)NCCCOCCOCCOCCCNC(=O)CCC(=O)N[C@H](CCCCNC(=O)CN2CCN(CC(=O)O)CCN(CC(=O)O)CCN(CC(=O)O)CC2)C(N)=O)NC(=O)[C@H](CC(=O)O)NC(=O)[C@H](Cc2cnc[nH]2)NC(=O)[C@H](Cc2ccc3ccccc3c2)NC(=O)[C@H](CC(N)=O)NC(=O)[C@H](CC(N)=O)NC1=O` [compound 167, Ac-W-T-I-C(3)-N-N-(2Nal)-H-D-C(3)-W-P-G-G-TTDS-[D-Lys(DOTA)]-NH2] (Ac-WTICNN[2Nal]HDCWPGG-{TtdsdLys(DOTA)NH2}; disulfide 4-10), the Kd was under 1 nM.

Take `CC[C@H](C)[C@H](NC(=O)[C@@H](NC(=O)[C@H](Cc1c[nH]c2ccccc12)NC(C)=O)[C@@H](C)O)C(=O)N[C@H]1CSSC[C@@H](C(=O)N[C@@H](Cc2c[nH]c3ccccc23)C(=O)N2CCC[C@H]2C(=O)N[C@H](CCCCNC(=O)CC[C@H](NC(=O)CN2CCN(CC(=O)O)CCN(CC(=O)O)CCN(CC(=O)O)CC2)C(=O)O)C(N)=O)NC(=O)[C@H](CC(=O)O)NC(=O)[C@H](Cc2cnc[nH]2)NC(=O)[C@H](Cc2ccc3ccccc3c2)NC(=O)[C@H](CC(N)=O)NC(=O)[C@H](CC(N)=O)NC1=O` [compound 354, Ac-W-T-I-C(3)-N-N-(2Nal)-H-D-C(3)-W-P-[D-Lys(gE-DOTA)]-NH2] (Ac-WTICNN[2Nal]HDCWP[dK]([γGlu-DOTA])-NH2; disulfide 4-10): the Kd is under 1 nM.

As for `CC(=O)N[C@@H](Cc1c[nH]c2ccc(F)cc12)C(=O)N[C@H](C(=O)N[C@@H](CC1CCC1)C(=O)N[C@H]1CSSC[C@@H](C(=O)N[C@@H](Cc2c[nH]c3ncccc23)C(=O)N2C[C@H](F)C[C@H]2C(=O)N[C@@H](CCCCNC(=O)CN2CCN(CC(=O)O)CCN(CC(=O)O)CCN(CC(=O)O)CC2)C(N)=O)NC(=O)[C@H](CC(=O)O)NC(=O)[C@H](Cc2cnc[nH]2)NC(=O)[C@H](Cc2ccc3ccccc3c2)NC(=O)[C@H](CC(N)=O)NC(=O)[C@H](CC(N)=O)NC1=O)[C@@H](C)O` [compound 269, Ac-(5Fluoro-W)-T-(CBA)-C(3)-N-N-(2Nal)-H-D-C(3)-(7Aza-W)-(trans4Fluoro-P)-[D-Lys(DOTA)]-NH2] (Ac-[Trp(5-F)]T[Cba]CNN[2Nal]HDC[Trp(7-aza)][Pro(trans-4-F)]K(DOTA)-NH2; disulfide 4-10), the Kd was under 1 nM.
